Assay [1] concerns the target Melanin-concentrating hormone receptor 2 (Homo sapiens, UniProt Q969V1). As to the kind of experiment: Antagonist activity against human MCH2 receptor. The class given is functional.
Assay [2] deals with Melanin-concentrating hormone receptor 1 (Homo sapiens, UniProt Q99705). Briefly: Antagonist activity against human MCH1 receptor. The class given is functional.

Structures are written as SMILES.

Chain of Melanin-concentrating hormone receptor 1 (Q99705 whole entry): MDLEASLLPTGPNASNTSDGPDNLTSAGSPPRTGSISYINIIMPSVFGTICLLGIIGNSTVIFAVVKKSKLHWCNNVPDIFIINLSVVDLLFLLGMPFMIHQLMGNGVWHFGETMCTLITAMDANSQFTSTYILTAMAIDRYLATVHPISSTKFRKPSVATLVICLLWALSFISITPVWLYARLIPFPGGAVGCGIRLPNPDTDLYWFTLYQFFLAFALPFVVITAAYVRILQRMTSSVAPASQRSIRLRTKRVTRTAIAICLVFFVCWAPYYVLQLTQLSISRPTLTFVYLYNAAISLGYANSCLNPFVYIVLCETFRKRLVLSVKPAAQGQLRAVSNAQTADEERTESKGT
Chain of Melanin-concentrating hormone receptor 2 (Q969V1 whole entry): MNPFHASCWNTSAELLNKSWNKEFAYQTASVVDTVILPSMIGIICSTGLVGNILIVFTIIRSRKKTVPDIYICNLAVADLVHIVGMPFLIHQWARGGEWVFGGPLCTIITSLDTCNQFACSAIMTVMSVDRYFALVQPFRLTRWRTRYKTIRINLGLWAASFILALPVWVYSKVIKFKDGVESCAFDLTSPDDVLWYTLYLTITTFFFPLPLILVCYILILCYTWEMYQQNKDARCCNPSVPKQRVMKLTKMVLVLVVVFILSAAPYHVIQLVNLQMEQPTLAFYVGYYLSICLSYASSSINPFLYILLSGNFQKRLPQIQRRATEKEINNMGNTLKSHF

In the case of `N#Cc1cccc(-c2ccc(CN(CC(=O)Nc3cc(Cl)cc(Cl)c3)C(=O)CN3CCCC3)cc2)c1`, the Ki (commonly a measure of affinity in units of concentration, obtained from inhibition or displacement) in assay [1] is above 3000 nM.
The same measure, in the same setting: the figure for `N#Cc1cccc(-c2ccc(CN(CC(=O)Nc3cc(Cl)cc(Cl)c3)C(=O)CN3CC[C@H](O)C3)cc2)c1` is above 3000 nM.
As to `C[C@@H](c1ccc(-c2cccc(C#N)c2)cc1)N(CC(=O)Nc1cc(Cl)cc(Cl)c1)C(=O)CN1CC[C@H](O)C1`, the Ki was above 3000 nM in assay [1] and 16 nM in assay [2].
Consider `C[C@H](c1ccc(-c2cccc(C#N)c2)cc1)N(CC(=O)Nc1cc(Cl)cc(Cl)c1)C(=O)CN1CC[C@H](O)C1`, for which the Ki in assay [1] is above 3000 nM; in assay [2] it was 31 nM.
For `N#Cc1cccc(-c2ccc(CN(CCCN3CCCC3)C(=O)Nc3ccc(F)c(C(F)(F)F)c3)cc2)c1`, the results for the inhibitory constant (Ki) in assay [1] and in assay [2] were above 3000 nM and 70 nM, respectively.
`N#Cc1cccc(-c2ccc(CN(CCN3CCCC3)C(=O)Nc3cc(Cl)cc(Cl)c3)cc2)c1`: the Ki was above 3000 nM in assay [1] and 151 nM in assay [2].
Turning to `N#Cc1cccc(-c2ccc(CN(CCCN3CCCC3)C(=O)Nc3ccc(F)c(Cl)c3)cc2)c1`, the values for the Ki in assay [1] and in assay [2] were above 3000 nM and 48 nM, respectively.
In assay [1], `N#Cc1cccc(-c2ccc(CCN(CC(=O)Nc3cc(Cl)cc(Cl)c3)C(=O)CN3CCCC3)cc2)c1` came in with a Ki above 3000 nM.
For `N#Cc1cccc(-c2ccc(CCN(CC(=O)Nc3cc(Cl)cc(Cl)c3)C(=O)CCN3CC[C@H](O)C3)cc2)c1`, in assay [1], the Ki was above 3000 nM.
Compound `N#Cc1cccc(-c2ccc(CN(CC(=O)Nc3cc(Cl)cc(Cl)c3)C(=O)CCN3CCCC3)cc2)c1` came in with a Ki in assay [1] above 3000 nM.
Consider `CC(C)(c1ccc(-c2cccc(C#N)c2)cc1)N(CC(=O)Nc1cc(Cl)cc(Cl)c1)C(=O)CN1CCCC1`, for which the results for the Ki in assay [1] and in assay [2] were above 3000 nM and 131 nM, respectively.
In turn, `N#Cc1cccc(-c2ccc(CCN(CC(=O)Nc3cc(Cl)cc(Cl)c3)C(=O)CN3CC[C@@H](O)C3)cc2)c1` displayed a Ki in assay [1] above 3000 nM.
Turning to `C[C@H](c1ccc(-c2cccc(C#N)c2)cc1)N(CC(=O)Nc1cc(Cl)cc(Cl)c1)C(=O)CCN1CC[C@H](O)C1`, the Ki was above 3000 nM in assay [1] and 23 nM in assay [2].
`C[C@@H](c1ccc(-c2cccc(C#N)c2)cc1)N(CC(=O)Nc1cc(Cl)cc(Cl)c1)C(=O)CCN1CC[C@H](O)C1`: the Ki was above 3000 nM in assay [1] and 18 nM in assay [2].
In the same order, the values of `N#Cc1cccc(-c2ccc(CN(CCN3CCCC3)C(=O)Nc3ccc(F)c(C(F)(F)F)c3)cc2)c1` are above 3000 nM and 159 nM.
Regarding `N#Cc1cccc(-c2ccc(CCN(CC(=O)Nc3cc(Cl)cc(Cl)c3)C(=O)CCN3CCCC3)cc2)c1`, in assay [1], the Ki was above 3000 nM.
`N#Cc1cccc(-c2ccc(CCN(CC(=O)Nc3cc(Cl)cc(Cl)c3)C(=O)CCN3CC[C@@H](O)C3)cc2)c1` came in with a Ki in assay [1] above 3000 nM.
For `C[C@H](c1ccc(-c2cccc(C#N)c2)cc1)N(CC(=O)Nc1cc(Cl)cc(Cl)c1)C(=O)CCCN1CC[C@H](O)C1`, the values for the Ki in assay [1] and in assay [2] were above 3000 nM and 76 nM, respectively.
Turning to `N#Cc1cccc(-c2ccc(CCN(CC(=O)Nc3cc(Cl)cc(Cl)c3)C(=O)CN3CC[C@H](O)C3)cc2)c1`, the Ki in assay [1] was above 3000 nM.
For the compound `CC(=O)N[C@@H]1CCN(CC(=O)N(CCc2ccc(-c3cccc(C#N)c3)cc2)CC(=O)Nc2cc(Cl)cc(Cl)c2)C1`, the Ki in assay [1] was above 3000 nM.
`N#Cc1cccc(-c2ccc(CN(CCCN3CCCC3)C(=O)Nc3cc(Cl)cc(Cl)c3)cc2)c1`: the Ki was above 3000 nM in assay [1] and 48 nM in assay [2].
The matching figures for `N#Cc1cccc(-c2ccc(CN(CCN3CCCC3)C(=O)Nc3ccc(F)c(Cl)c3)cc2)c1`: above 3000 nM and 287 nM.
In turn, `N#Cc1cccc(-c2ccc(CN(CC(=O)Nc3cc(Cl)cc(Cl)c3)C(=O)CN3CC[C@@H](O)C3)cc2)c1` showed a Ki in assay [1] above 3000 nM.

The values are drawn from ChEMBL document CHEMBL1141941, “Biaryl diamides as potent melanin concentrating hormone receptor 1 antagonists” (Bioorg Med Chem Lett, 2005).
